Laboratory results taken from publication PMC8162404, “Proteomimetic surface fragments distinguish targets by function” (Chemical Science, 2020).
Like-named read-outs stand apart in the source and are kept apart here.

How the values were obtained:
Test in all cases: Pull-down assay with immobilized protein and LSM libraries
[1] = target: T1, CaM (Bos taurus, UniProt P62157); assay type: binding, bovine; details: 1:2 stoichiometry assumed, read-out: Surface mapping KD (apparent)
T1 construct: made in house; host or cells: E. coli BL21 (DE3)
Summary of the method: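 His-tagged protein immobilized on Co-NTA resin, equilibrated 30 min at room temperature with LSM sublibraries (64 members, […]), equimolar protein to total probe. CaM buffer: 20 mM HEPES pH 7.4, 150 mM NaCl, 5 mM CaCl2. Bound fractions from HPLC-MS loss of unbound probe versus protein-free resin control; Kd derived.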

[2] = target: T2, RecQ-WH (Escherichia coli, UniProt P15043); parameters: species or system E. coli; details: 1:1 binding assumed, read-out: Surface mapping KD (apparent)
T2 construct: coding for residues 408– 523 of E. coli RecQ; made in house; host or cells: E. coli BL21(DE3)
Protocol: Pull-down assays with immobilized test proteins and foldameric LSM libraries were carried out. Proteins were equilibrated with LSM probes, and equilibrium bound fractions (FB) were determined from the unbound fractions measured by HPLC-MS methods. Hits were corrected with background binding of the resin. The protocol allowed all binding events to equilibrate irrespective of affinity, specificity, and binding kinetics. This was essential to judge overall druggability and promiscuity. Importantly, the concentration of protein and the total concentration of foldameric LSMs were equimolar, which minimized competition between the probes. This experimental setup approximated independent binding of individual library members. Results were visualized as heat maps of dissociation constants (Fig. 3).
Pull-down assay and data analysis
Pull-down assay. LSM sublibraries were screened separately as previously described.(2) Experiments were performed in the following buffers: (i) 20 mM pH 7.4 HEPES, 150 mM NaCl, 5 mM CaCl2 for CaM; (ii) 50 mM pH 7.4 HEPES, 150 mM NaCl, 1 mM TCEP, 1 mM CaCl2 for S100 proteins; (iii) 20 mM pH 7.4 HEPES, 150 mM NaCl, 1 mM TCEP for Gal-1 and (iv) 20 mM pH 7.4 HEPES, 150 mM NaCl for RecQ-WH. Assays were performed in paper filter spin cups (Thermo Scientific) with sample volumes of 100 µl. Hexahistidine-tagged proteins were immobilized on previously washed Co-NTA resin (TALON, Takara Bio USA, Inc., Mountain View, CA) in 64 µM final concentration. LSM sublibrary was added, in which each of the 64 library members were used at a concentration of 1 µM. Samples were incubated at room temperature for 30 min with shaking at 100 rpm. Then, samples were centrifuged at 1000 rpm for 2 min and washed with 100 µl pull-down buffer to remove unbound compounds.
The control experiments were performed using the same compounds and the resin but without the immobilized protein. In case of competitive assays, competitor peptides were added to LSM sublibrary samples in 200 µM final concentration. In the case of Gal-1, lactose (competitor) was used in a concentration of 10 mM. Experiments were performed at least twice. Mean […]
LC-MS methods and parameters. HPLC/ESI-MS analysis was used to characterize the samples from the pull-down assay. LC-MS analysis was performed with a Thermo Scientific Dionex UltiMate 3000 HPLC system interfaced to an LTQ ion trap mass spectrometer (Thermo Electron Corp., San Jose, CA, USA). Samples were injected onto an Aeris Widepore XB-C18 (250 x 4.6 mm) analytical HPLC column using gradient elution 5-80 % solution B during 25 minutes. For pull-down samples, eluent composition was 0.1% acetic acid in distilled water (Solution A) and 0.1% acetic acid in acetonitrile (solution B). Mass spectra were acquired in full scan mode from 200 to 2000 m/z range. For overlapping peaks, selective reaction monitoring (SRM) was […]
MS data analysis. Thermo Xcalibur 2.2 software was used for peak identification and integration. The majority of the foldameric fragments could be resolved independently via HPLC-MS/MS measurements based on molecular weight, MS fragmentation pattern and retention time. Peaks of some foldamers with β3-hIle or β3-hLeu in position R2 could not be resolved, these were integrated and averaged. In the processing method, each sample component was associated to a chromatographic peak based on previously identified mass (m/z) and retention time (ref (2) and Table S7-10). Using ICIS peak detection algorithm, the general detection and integration criteria were: smoothing points: 5, baseline window: 80, area noise factor: 5, peak noise factor: 10. Using these processing setups, all raw data files were reprocessed together and analyzed. Errors in peak identification during the automatic processing were corrected manually.
Calculation of the discussed parameters
1. Bound fractions (FB.) were calculated from the HPLC-MS intensity loss of the LSM probes compared to the control where no protein was immobilized to the resin: […]

[3] = target: T3, Gal-1 (Homo sapiens, UniProt P09382); assay type: binding; details: H12 library; 1:1 binding assumed; read-out: Surface mapping KD (apparent)
T3 construct: made in house; host or cells: E. coli BL21(DE3)
Summary of the method: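 His-tagged protein immobilized on Co-NTA resin (64 µM) in 20 mM HEPES pH 7.4, 150 mM NaCl, equilibrated 30 min at room temperature with foldamer LSM sublibraries at equimolar total concentration. Unbound fractions quantified by HPLC-MS versus protein-free resin control; apparent KD assumes 1:1 binding.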

[4] = target: T4, S100B (Homo sapiens, UniProt P04271); assay type: binding; details: H12 library; 1:1 binding assumed; read-out: Surface mapping KD (apparent)
T4 construct: made in house; host or cells: Escherichia coli BL21(DE3)
T4 sequence (P04271 1-92): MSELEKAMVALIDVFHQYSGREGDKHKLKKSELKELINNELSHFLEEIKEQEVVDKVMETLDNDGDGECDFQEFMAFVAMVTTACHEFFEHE
Summary of the method: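 Buffers were HEPES pH 7.4 with 150 mM NaCl, plus 1 mM TCEP and 1 mM CaCl2 (50 mM HEPES) for S100A4 and S100B, 1 mM TCEP for Gal-1, and no additive for RecQ-WH. Immobilized protein at 64 µM was equilibrated 30 min with the LSM sublibrary, and unbound probes were measured by LC-MS.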

T3 sequence (P09382 whole entry): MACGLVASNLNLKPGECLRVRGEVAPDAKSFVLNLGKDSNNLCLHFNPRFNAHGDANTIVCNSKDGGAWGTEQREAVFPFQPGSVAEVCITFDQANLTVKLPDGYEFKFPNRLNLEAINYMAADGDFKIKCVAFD
T2 sequence (P15043 408-523): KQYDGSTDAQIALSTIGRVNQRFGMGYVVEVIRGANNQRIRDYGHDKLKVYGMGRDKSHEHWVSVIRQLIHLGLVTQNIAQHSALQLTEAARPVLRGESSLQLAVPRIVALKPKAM

Structure (SMILES): NCCCC[C@@H](CC(=O)N[C@H]1CCC[C@@H]1C(=O)N[C@H]1CCC[C@@H]1C(N)=O)NC(=O)[C@H]1CCC[C@@H]1NC(=O)[C@H]1CCC[C@@H]1NC(=O)C[C@H](Cc1ccccc1)NC(=O)[C@H]1CCC[C@@H]1NC(=O)[C@H]1CCC[C@@H]1N [H12 FK]
- Kd ([1]; H12 library): 448 µM
- Kd ([2]; H12 library): 337 µM
- Kd [3]: 246 µM
- Kd [4]: 37 µM

Structure (SMILES): CC(C)C[C@@H](CC(=O)N[C@H]1CCC[C@@H]1C(=O)N[C@H]1CCC[C@@H]1C(=O)N[C@@H](CCCCN)CC(=O)N[C@H]1CCC[C@@H]1C(=O)N[C@H]1CCC[C@@H]1C(N)=O)NC(=O)[C@H]1CCC[C@@H]1NC(=O)[C@H]1CCC[C@@H]1N [H12 LK]
- Kd ([2]; H12 library): 434 µM
- Kd [4]: 54 µM

Structure (SMILES): CSCC[C@@H](CC(=O)N[C@H]1CCC[C@@H]1C(=O)N[C@H]1CCC[C@@H]1C(=O)N[C@@H](CCCNC(=N)N)CC(=O)N[C@H]1CCC[C@@H]1C(=O)N[C@H]1CCC[C@@H]1C(N)=O)NC(=O)[C@H]1CCC[C@@H]1NC(=O)[C@H]1CCC[C@@H]1N [H12 MR]
- Kd ([2]; H12 library): 435 µM
- Kd [3]: 186 µM
- Kd [4]: 59 µM

Structure (SMILES): NCCCC[C@@H](CC(=O)N[C@H]1CCC[C@@H]1C(=O)N[C@H]1CCC[C@@H]1C(N)=O)NC(=O)[C@H]1CCC[C@@H]1NC(=O)[C@H]1CCC[C@@H]1NC(=O)C[C@H](Cc1c[nH]c2ccccc12)NC(=O)[C@H]1CCC[C@@H]1NC(=O)[C@H]1CCC[C@@H]1N [H12 WK]
- Kd ([2]; H12 library): 431 µM
- Kd [3]: 266 µM
- Kd [4]: 26 µM

Structure (SMILES): NC(=O)[C@H]1CCC[C@@H]1NC(=O)[C@H]1CCC[C@@H]1NC(=O)C[C@H](CO)NC(=O)[C@H]1CCC[C@@H]1NC(=O)[C@H]1CCC[C@@H]1NC(=O)C[C@H](Cc1c[nH]c2ccccc12)NC(=O)[C@H]1CCC[C@@H]1NC(=O)[C@H]1CCC[C@@H]1N [H12 WS]
- Kd ([2]; H12 library): 420 µM
- Kd [3]: 413 µM
- Kd [4]: 54 µM

Structure (SMILES): CC[C@H](C)[C@@H](CC(=O)N[C@H]1CCCC[C@@H]1C(N)=O)NC(=O)[C@H]1CCCC[C@@H]1NC(=O)[C@H]1CCCC[C@@H]1NC(=O)C[C@H](CCC(=O)O)NC(=O)[C@H]1CCCC[C@@H]1N [H14 EI]
- Kd ([2]; H14 library): 444 µM

Structure (SMILES): CC(C)C[C@@H](CC(=O)N[C@H]1CCCC[C@@H]1C(N)=O)NC(=O)[C@H]1CCCC[C@@H]1NC(=O)[C@H]1CCCC[C@@H]1NC(=O)C[C@H](CCC(=O)O)NC(=O)[C@H]1CCCC[C@@H]1N [H14 EL]
- Kd ([2]; H14 library): 444 µM

Structure (SMILES): NC(=O)[C@H]1CCCC[C@@H]1NC(=O)C[C@H](CC(=O)O)NC(=O)[C@H]1CCCC[C@@H]1NC(=O)[C@H]1CCCC[C@@H]1NC(=O)C[C@H](Cc1ccccc1)NC(=O)[C@H]1CCCC[C@@H]1N [H14 FD]
- Kd ([1]; H14 library): 489 µM
- Kd ([2]; H14 library): 193 µM
